We go through nine compounds from ChEMBL document CHEMBL1157692, “Probing the carbohydrate recognition domain of E-selectin: the importance of the acid orientation in sLex mimetics” (Bioorg Med Chem, 2010).

Experiment [1] deals with T1, E-selectin (Homo sapiens) (UniProt P16581).
T1 sequence (whole entry): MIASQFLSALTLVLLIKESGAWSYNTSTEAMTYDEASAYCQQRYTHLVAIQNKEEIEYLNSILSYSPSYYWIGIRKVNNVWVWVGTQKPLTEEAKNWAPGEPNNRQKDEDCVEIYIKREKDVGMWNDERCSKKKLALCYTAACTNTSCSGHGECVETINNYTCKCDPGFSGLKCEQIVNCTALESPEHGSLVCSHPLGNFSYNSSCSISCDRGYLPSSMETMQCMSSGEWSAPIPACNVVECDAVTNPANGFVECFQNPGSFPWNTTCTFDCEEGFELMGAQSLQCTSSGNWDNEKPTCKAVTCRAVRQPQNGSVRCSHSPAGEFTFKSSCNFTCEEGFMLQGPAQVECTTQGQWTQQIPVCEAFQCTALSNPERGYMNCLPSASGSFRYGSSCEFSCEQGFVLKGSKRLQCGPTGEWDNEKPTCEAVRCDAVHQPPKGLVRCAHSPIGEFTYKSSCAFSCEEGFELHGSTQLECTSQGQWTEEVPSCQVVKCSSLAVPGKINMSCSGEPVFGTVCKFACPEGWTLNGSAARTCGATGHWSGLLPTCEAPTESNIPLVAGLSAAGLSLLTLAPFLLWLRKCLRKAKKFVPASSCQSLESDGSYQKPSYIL
Briefly: Ratio of compound IC50 to sialyl Lewis X IC50 for E-selectin by ELISA.

The target in experiment [2] is T1, E-selectin (Homo sapiens). Briefly: Ratio of sialyl Lewis X IC50 to compound IC50 for E-selectin by ELISA. For orientation: An ELISA detects its analyte on a solid surface through an enzyme-linked reagent.
The target of experiment [3] is T1, E-selectin (Homo sapiens). Briefly: Inhibition of CGP-69669A binding to E-selectin by ELISA.

Calls of active or inactive are those of the source. The calls are words filed in the database; no cut-off is given here.

For `C[C@@H]1O[C@@H](O[C@@H]2CCCC[C@H]2O[C@@H]2O[C@H](CO)[C@H](O)[C@H](O[C@@H](Cn3cc(-c4ccsc4)nn3)C(=O)O)[C@H]2O)[C@@H](O)[C@H](O)[C@@H]1O`, the Ratio IC50 in experiment [1] came to 0.88.

For `C[C@@H]1O[C@@H](O[C@@H]2CCCC[C@H]2O[C@@H]2O[C@H](CO)[C@H](O)[C@H](O[C@@H](Cn3cc(Cn4nnc5c4CCCC5)nn3)C(=O)O)[C@H]2O)[C@@H](O)[C@H](O)[C@@H]1O`, in experiment [1], the Ratio IC50 was determined as 1.22.

Consider `C[C@@H]1O[C@@H](O[C@@H]2CCCC[C@H]2O[C@@H]2O[C@H](CO)[C@H](O)[C@H](O[C@@H](CC3CCCCC3)C(=O)O)[C@H]2O)[C@@H](O)[C@H](O)[C@@H]1O`, for which the Ratio IC50 in experiment [1] was determined as 0.08; in experiment [2] it was 12.

As for `C[C@@H]1O[C@@H](O[C@@H]2CCCC[C@H]2O[C@@H]2O[C@H](CO)[C@H](O)[C@H](O[C@@H](Cn3ccnn3)C(=O)O)[C@H]2O)[C@@H](O)[C@H](O)[C@@H]1O`, the Ratio IC50 in experiment [1] is 0.48.

For the compound `C[C@@H]1O[C@@H](O[C@@H]2CCCC[C@H]2O[C@@H]2O[C@H](CO)[C@H](O)[C@H](O[C@@H](Cn3cc(-c4cccc(C(F)(F)F)c4)nn3)C(=O)O)[C@H]2O)[C@@H](O)[C@H](O)[C@@H]1O`, in experiment [3], the inhibition entry was “inactive”.

Take `C[C@@H]1O[C@@H](O[C@@H]2CCCC[C@H]2O[C@@H]2O[C@H](CO)[C@H](O)[C@H](O[C@@H](Cn3cc(Cn4nnc5ccccc54)nn3)C(=O)O)[C@H]2O)[C@@H](O)[C@H](O)[C@@H]1O`: the Ratio IC50 in experiment [1] is 1.18.

For `C[C@@H]1O[C@@H](O[C@@H]2CCCC[C@H]2O[C@@H]2O[C@H](CO)[C@H](O)[C@H](O[C@@H](Cn3cc(-c4cccnc4)nn3)C(=O)O)[C@H]2O)[C@@H](O)[C@H](O)[C@@H]1O`, in experiment [1], the Ratio IC50 was 3.13.

In the case of `C[C@@H]1O[C@@H](O[C@@H]2CCCC[C@H]2O[C@@H]2O[C@H](CO)[C@H](O)[C@H](O[C@@H](Cn3cc(Cc4ccccc4)nn3)C(=O)O)[C@H]2O)[C@@H](O)[C@H](O)[C@@H]1O`, the Ratio IC50 in experiment [1] worked out at 1.03.

`C[C@@H]1O[C@@H](O[C@@H]2CCCC[C@H]2O[C@@H]2O[C@H](CO)[C@H](O)[C@H](O[C@@H](CN=[N+]=[N-])C(=O)O)[C@H]2O)[C@@H](O)[C@H](O)[C@@H]1O`: in experiment [1], the Ratio IC50 is 0.29.
